ChEMBL document CHEMBL1201862, “PubChem BioAssay data set” (2004)
Active and inactive are the calls of the source.

What was measured:
[1] = biological target: T1, DNA dC->dU-editing enzyme APOBEC-3G (Homo sapiens, UniProt Q9HC16); test: SAR analysis of small molecule inhibitors of APOBEC3G DNA Deaminase via a fluorescence-based single-stranded DNA deaminase assay - Set 2.; type: functional; details: read-out: IC50_Mean
[2] = biological target: T1, DNA dC->dU-editing enzyme APOBEC-3G; test: APOBEC3G deaminase inhibitors, SAR follow-up, biochemical, fluorescence, single-stranded DNA substrate (AID 602136); type: functional; details: read-out: IC50_Mean
[3] = biological target: T1, DNA dC->dU-editing enzyme APOBEC-3G; test: Dose Response confirmation of small molecule APOBEC3G DNA Deaminase Inhibitors via a fluorescence-based single-stranded DNA deaminase assay. [Related pubchem assays (depositor defined):AID493012, AID493028]; type: functional
[4] = biological target: T2, DNA dC->dU-editing enzyme APOBEC-3A (Homo sapiens, UniProt P31941); test: SAR analysis of small molecule inhibitors of APOBEC3A DNA Deaminase via a fluorescence-based single-stranded DNA deaminase assay.; type: functional; details: read-out: IC50_Mean
[5] = biological target: T2, DNA dC->dU-editing enzyme APOBEC-3A; test: APOBEC3A DNA deaminase inhibitors, dose response, biochemical (AID 504722); type: functional
[6] = biological target: Large T antigen (Simian virus 40, UniProt P03070); type: functional, Betapolyomavirus macacae;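 further: Confirmatory-stage PubChem screen for compounds that inhibit SV40 T antigen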
[7] = biological target: T2, DNA dC->dU-editing enzyme APOBEC-3A; test: SAR analysis of small molecule inhibitors of APOBEC3A DNA Deaminase via a fluorescence-based single-stranded DNA deaminase assay - Set 2.; type: functional; details: read-out: IC50_Mean
[8] = test system: BJ; test: cytotoxicity toward Ras-transformed BJeLR fibroblasts, dose response, cell-based, alamar blue fluorescence, cherrypicked samples (AID 2631); type: functional; details: Homo sapiens;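 further: confirmatory dose-response assay in RAS-dependent BJ fibroblasts engineered with TERT, LT and ST, with cytotoxicity read by fluorescence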
[9] = cytotoxicity in HEK-293T cells, dose response, cytotoxicity control for TCR NF-kB inhibitor project, luminescence, T-cell screen hits (AID 489026); type: functional, cell-based;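 further: cells exposed to compound about 14 hours before the viability readout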
[10] = biological target: T3, Protein RecA (Mycobacterium tuberculosis, UniProt P9WHJ3); test: Fluorescence Cell-Free Homogeneous Dose Retest to Identify Inhibitors of RecA-Intein Splicing Activity. [Related pubchem assays (depositor defined):AID2097, AID2223, AID489010, AID492950]; type: functional
T3 sequence (P9WHJ3 whole entry): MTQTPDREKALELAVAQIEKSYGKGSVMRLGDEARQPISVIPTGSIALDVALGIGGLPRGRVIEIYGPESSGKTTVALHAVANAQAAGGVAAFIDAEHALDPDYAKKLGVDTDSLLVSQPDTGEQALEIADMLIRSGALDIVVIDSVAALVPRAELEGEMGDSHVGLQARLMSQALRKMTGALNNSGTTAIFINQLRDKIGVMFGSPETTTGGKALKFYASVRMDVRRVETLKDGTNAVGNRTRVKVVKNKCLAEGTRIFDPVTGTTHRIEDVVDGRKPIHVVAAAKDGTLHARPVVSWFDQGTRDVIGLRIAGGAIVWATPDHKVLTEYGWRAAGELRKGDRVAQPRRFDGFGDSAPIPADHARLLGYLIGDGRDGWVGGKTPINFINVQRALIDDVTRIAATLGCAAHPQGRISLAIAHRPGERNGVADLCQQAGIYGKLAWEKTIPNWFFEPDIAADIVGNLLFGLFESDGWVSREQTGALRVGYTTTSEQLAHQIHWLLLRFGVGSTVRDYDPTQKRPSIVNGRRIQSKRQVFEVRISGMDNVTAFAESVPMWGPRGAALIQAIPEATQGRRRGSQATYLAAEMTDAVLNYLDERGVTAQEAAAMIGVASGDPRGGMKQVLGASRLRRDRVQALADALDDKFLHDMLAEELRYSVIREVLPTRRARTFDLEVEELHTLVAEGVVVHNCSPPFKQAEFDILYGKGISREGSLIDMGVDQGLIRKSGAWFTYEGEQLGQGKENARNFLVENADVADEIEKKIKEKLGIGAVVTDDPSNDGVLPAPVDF

[11] = test system: BJ; test: cytotoxicity toward BJ-TERT-LT-ST fibroblasts, dose response, cell-based, RAS-independent, luminescence (AID 1935); type: functional; details: Homo sapiens;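 further: BJ fibroblasts immortalized with TERT plus LT and ST oncogenes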
[12] = biological target: T4, Replicative DNA helicase DnaB (Mycobacterium tuberculosis, UniProt P9WMR3); test: DnaB intein splicing inhibitors, dose response, biochemical, cell-free fluorescence (AID 449749); type: functional
T4 sequence (P9WMR3 whole entry): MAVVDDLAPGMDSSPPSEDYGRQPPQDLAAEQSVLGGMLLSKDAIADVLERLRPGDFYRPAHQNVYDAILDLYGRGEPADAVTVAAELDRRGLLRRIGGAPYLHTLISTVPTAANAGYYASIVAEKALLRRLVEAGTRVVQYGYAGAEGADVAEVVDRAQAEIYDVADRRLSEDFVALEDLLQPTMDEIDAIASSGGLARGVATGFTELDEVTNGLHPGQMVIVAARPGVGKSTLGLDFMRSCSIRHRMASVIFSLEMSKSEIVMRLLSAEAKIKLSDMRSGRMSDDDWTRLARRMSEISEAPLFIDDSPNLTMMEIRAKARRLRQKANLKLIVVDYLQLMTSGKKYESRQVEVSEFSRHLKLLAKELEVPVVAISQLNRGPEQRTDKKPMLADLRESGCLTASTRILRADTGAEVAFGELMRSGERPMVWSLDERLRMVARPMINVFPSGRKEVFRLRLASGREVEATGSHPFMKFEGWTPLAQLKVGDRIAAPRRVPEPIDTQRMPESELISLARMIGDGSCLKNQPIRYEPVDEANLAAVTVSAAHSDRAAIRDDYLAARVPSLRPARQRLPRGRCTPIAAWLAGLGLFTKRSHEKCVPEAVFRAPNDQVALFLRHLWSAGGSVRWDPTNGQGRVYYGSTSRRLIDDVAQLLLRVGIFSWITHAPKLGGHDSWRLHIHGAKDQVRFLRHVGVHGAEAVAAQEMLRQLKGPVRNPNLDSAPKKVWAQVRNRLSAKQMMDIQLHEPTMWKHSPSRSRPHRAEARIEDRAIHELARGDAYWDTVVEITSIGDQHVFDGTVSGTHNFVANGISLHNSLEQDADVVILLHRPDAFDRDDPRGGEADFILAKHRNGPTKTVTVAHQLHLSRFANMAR

[13] = biological target: E3 ubiquitin-protein ligase Mdm2/Protein Mdm4 (Homo sapiens, UniProt O15151+Q00987); test: Mdm2-MdmX interaction inhibitors, dose response, luminescence detection (AID 504593); type: functional
[14] = test system: BJ; test: cells; type: functional, cell-based; details: Homo sapiens
[15] = cytotoxicity toward DRD oncogenic fibroblasts, dose response, cell-based, non-viral oncogenic, luminescence (AID 1934); type: functional; details: Homo sapiens
[16] = inhibitors of SNCA 5'UTR-driven reporter translation, confirmation, H4 neuroglioma cells, luminescence (AID 1988); type: functional, cell-based
[17] = test system: BJ; test: cytotoxicity toward BJ-TERT fibroblasts, dose response, cell-based, RAS-independent, luminescence (AID 1933); type: functional; details: Homo sapiens
[18] = inhibitors of firefly luciferase expression or activity, dose response, H4 neuroglioma cells, luminescence (AID 1990); type: functional, cell-based
[19] = test system: J774.A1; test: Confirmation of image-based Screening Assay for Inhibitors of Phagocytosis. [Related pubchem assays (depositor defined):AID1029, AID1643]; type: functional, cell-based; details: Mus musculus
[20] = Luminescence Cell-Based Dose Response HTS to Identify Inhibitors of 5'UTR Stem-Loop Driven Prion Protein mRNA Translation in H4 Neuroglioblastoma Cells. [Related pubchem assays: 1827 (Project Summary), 1813 (Primary HTS)]; type: functional
[21] = biological target: Perilipin-1/ABHD5 (Homo sapiens, UniProt O60240+Q8WTS1); test: Luminescence-based biochemical high throughput dose response assay for inhibitors of the interaction of the lipase co-activator protein, abhydrolase domain containing 5 (ABHD5) with perilipin-1 (PLIN1) (2K validation set). [Related pubchem assays (depositor defined):AID493027, AID493057]
[22] = biological target: X-box-binding protein 1 (Homo sapiens, UniProt P17861); type: functional, Cricetulus griseus;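 further: confirmatory dose-response counter-screen serving a CHOP assay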
[23] = Luminescence Cell-Based Dose Retest to Confirm Inhibitors of Cancer Stem Cells. [Related pubchem assays (depositor defined):AID2717, AID2721]; type: functional; details: Homo sapiens
[24] = biological target: Neurotensin receptor type 1 (Homo sapiens, UniProt P30989); type: functional;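 further: Image-based confirmatory dose-response assay measuring agonist activity at NTR1; NTR1-expressing U2OS osteosarcoma cells imaged for beta-arrestin GFP spot formation; agonist potency where compounds increase beta-arrestin recruitment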
[25] = biological target: 1-acylglycerol-3-phosphate O-acyltransferase ABHD5/Perilipin-5 (Homo sapiens, UniProt Q00G26+Q8WTS1); test: Luminescence-based biochemical high throughput dose response assay for inhibitors of the interaction of the lipase co-activator protein, abhydrolase domain containing 5 (ABHD5) with perilipin-5 (MLDP; PLIN5) (2K validation set). [Related pubchem assays (depositor defined):AID493035, AID493241]
[26] = biological target: Eukaryotic translation initiation factor 4H (Homo sapiens, UniProt Q15056); test: eIF4H inhibition in translation initiation, SAR follow-up (AID 435011); type: functional
[27] = biological target: Polyadenylate-binding protein 1 (Homo sapiens, UniProt P11940); test: PABP inhibition in translation initiation, SAR follow-up (AID 435018); type: functional
Chain of Polyadenylate-binding protein 1 (P11940 whole entry): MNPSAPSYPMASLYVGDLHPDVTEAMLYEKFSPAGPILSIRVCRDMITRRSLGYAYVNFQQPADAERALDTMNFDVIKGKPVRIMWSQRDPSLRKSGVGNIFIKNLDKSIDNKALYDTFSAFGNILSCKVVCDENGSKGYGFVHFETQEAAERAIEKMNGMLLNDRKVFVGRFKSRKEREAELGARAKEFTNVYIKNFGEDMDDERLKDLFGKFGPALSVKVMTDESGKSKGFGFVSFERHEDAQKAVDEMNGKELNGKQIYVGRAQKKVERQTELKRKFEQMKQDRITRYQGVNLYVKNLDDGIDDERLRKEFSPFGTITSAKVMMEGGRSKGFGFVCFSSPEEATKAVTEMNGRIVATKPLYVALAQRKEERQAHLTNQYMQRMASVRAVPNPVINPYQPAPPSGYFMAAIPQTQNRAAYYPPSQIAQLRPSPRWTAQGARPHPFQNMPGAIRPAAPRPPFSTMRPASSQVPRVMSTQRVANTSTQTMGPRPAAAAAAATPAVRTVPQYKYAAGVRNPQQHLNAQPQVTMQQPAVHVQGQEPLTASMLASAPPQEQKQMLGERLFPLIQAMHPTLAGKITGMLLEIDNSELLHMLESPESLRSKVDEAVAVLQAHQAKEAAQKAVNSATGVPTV

T1 sequence (Q9HC16 whole entry): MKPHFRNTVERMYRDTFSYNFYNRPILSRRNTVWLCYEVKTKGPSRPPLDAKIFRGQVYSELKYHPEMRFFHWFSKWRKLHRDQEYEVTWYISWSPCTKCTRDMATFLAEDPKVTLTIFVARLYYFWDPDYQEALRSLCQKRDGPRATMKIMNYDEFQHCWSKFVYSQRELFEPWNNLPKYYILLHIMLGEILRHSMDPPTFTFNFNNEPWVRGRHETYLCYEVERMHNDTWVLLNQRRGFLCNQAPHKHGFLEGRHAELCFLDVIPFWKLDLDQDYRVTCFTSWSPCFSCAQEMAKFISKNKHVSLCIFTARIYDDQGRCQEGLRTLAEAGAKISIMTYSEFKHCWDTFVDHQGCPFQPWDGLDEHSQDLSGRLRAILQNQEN
T2 sequence (P31941 whole entry): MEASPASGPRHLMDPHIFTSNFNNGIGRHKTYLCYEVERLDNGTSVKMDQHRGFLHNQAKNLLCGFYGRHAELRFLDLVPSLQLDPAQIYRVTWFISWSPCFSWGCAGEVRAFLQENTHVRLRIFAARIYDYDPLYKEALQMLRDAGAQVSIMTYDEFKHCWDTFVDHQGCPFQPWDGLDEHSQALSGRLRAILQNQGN
Chain of Neurotensin receptor type 1 (P30989 whole entry, the tested form may be a part): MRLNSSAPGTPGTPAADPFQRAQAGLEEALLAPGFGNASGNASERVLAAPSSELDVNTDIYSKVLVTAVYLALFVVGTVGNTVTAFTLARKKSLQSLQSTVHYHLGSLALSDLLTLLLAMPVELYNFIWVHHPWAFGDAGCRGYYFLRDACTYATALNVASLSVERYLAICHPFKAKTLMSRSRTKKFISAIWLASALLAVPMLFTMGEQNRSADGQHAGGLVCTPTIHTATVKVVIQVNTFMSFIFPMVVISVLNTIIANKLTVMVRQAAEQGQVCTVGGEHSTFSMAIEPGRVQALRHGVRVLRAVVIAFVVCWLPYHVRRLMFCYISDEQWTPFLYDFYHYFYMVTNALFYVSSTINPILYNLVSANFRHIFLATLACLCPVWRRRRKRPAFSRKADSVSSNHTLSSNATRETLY
Chain of E3 ubiquitin-protein ligase Mdm2/Protein Mdm4 (Q00987 whole entry): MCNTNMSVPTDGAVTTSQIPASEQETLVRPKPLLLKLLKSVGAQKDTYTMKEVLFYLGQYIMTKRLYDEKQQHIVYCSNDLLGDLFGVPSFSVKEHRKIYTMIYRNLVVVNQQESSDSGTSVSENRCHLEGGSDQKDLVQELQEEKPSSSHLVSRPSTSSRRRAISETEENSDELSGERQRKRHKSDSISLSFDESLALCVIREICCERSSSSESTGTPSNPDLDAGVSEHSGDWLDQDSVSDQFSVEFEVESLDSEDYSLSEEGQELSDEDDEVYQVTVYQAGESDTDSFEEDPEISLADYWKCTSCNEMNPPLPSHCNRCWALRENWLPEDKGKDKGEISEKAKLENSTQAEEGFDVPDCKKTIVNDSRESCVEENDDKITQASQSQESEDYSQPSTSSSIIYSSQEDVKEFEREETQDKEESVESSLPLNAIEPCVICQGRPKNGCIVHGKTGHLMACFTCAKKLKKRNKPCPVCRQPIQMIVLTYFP
Chain of E3 ubiquitin-protein ligase Mdm2/Protein Mdm4 (O15151 whole entry): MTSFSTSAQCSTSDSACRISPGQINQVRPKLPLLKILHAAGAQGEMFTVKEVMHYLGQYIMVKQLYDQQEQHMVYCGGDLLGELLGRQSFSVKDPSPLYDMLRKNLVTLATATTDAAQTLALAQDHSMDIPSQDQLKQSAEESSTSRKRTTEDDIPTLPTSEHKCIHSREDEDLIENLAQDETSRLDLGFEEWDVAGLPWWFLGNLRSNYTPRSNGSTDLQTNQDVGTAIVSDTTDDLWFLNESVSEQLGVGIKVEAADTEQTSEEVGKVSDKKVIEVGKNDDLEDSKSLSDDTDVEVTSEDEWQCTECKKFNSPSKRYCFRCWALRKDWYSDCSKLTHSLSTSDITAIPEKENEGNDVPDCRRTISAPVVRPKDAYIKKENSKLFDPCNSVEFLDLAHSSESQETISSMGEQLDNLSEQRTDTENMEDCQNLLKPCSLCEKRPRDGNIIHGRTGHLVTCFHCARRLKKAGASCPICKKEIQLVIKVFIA
Chain of 1-acylglycerol-3-phosphate O-acyltransferase ABHD5/Perilipin-5 (Q00G26 whole entry, the tested form may be a part): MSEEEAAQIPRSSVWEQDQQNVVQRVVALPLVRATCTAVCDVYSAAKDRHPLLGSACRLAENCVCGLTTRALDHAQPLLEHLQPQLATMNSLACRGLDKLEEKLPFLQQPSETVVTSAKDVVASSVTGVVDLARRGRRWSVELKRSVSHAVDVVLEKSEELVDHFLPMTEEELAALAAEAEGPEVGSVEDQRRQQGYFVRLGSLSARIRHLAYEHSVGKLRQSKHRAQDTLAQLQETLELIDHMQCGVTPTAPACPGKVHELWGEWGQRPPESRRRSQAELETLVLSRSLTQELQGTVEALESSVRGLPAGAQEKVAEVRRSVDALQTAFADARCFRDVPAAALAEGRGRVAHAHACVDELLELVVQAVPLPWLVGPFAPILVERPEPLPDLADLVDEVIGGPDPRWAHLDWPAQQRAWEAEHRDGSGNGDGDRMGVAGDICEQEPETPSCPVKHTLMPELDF
Chain of 1-acylglycerol-3-phosphate O-acyltransferase ABHD5/Perilipin-5 (Q8WTS1 whole entry, the tested form may be a part): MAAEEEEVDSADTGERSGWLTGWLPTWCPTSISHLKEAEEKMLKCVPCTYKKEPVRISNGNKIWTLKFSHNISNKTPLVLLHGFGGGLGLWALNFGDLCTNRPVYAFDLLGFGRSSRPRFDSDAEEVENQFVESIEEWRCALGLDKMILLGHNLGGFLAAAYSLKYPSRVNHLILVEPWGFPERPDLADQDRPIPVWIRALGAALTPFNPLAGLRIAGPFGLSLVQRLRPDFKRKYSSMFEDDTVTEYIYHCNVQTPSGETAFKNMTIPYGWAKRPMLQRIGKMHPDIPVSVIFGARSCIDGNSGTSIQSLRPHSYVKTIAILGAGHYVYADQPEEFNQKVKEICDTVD
Chain of X-box-binding protein 1 (P17861 whole entry): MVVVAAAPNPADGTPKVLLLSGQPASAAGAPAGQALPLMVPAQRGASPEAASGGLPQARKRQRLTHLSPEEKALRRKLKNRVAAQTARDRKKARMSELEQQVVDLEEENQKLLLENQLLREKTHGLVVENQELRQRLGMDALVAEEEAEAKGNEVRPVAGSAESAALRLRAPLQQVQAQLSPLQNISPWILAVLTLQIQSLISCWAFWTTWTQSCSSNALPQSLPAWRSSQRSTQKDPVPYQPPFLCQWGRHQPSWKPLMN
Chain of Perilipin-1/ABHD5 (Q8WTS1 whole entry, the tested form may be a part): as the sequence (Q8WTS1 whole entry, the tested form may be a part) above
Chain of Perilipin-1/ABHD5 (O60240 whole entry, the tested form may be a part): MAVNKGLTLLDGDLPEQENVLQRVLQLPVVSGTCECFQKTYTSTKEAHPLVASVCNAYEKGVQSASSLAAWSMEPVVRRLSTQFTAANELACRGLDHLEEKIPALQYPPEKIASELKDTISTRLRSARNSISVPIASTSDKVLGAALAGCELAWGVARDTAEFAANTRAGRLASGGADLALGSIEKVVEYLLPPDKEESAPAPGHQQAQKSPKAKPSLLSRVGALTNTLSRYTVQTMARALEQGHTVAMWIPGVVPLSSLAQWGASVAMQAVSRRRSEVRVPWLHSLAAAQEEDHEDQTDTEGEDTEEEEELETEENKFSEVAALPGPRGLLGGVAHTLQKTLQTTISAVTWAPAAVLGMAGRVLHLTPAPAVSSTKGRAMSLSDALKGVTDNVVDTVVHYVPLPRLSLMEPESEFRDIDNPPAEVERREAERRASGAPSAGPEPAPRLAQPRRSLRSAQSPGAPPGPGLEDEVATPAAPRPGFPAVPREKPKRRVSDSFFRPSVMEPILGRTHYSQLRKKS

For `CCCCn1c(=O)c2ccccc2n2c(S)nnc12`, which IC50 [1] is on record?
Its IC50 is 0.345 µM (active).

And the IC50 [2]?
Its IC50 is 2.72 µM (active).

And the IC50 [3]?
The IC50 was 1.7 µM (active).

And the IC50 [4]?
The IC50 was > 99 µM (inactive).

What about the IC50 [5] of the same compound?
The IC50 was > 100 µM (inactive).

And the IC50 [6]?
The IC50 was 11.5 µM (active).

And the IC50 [7]?
Its IC50 is > 99 µM (inactive).

With `Cn1nc([N+](=O)[O-])nc1Sc1nnc(-c2ccccc2)o1` as the compound, how does the EC50 [8] read?
The EC50 was 0.556 µM (active).

And the IC50 [9]?
Its IC50 is > 80 µM (inactive).

And the EC50 [10]?
Its EC50 is 10.9 µM (active).

What about the EC50 [11] of the same compound?
The EC50 was 43.9 µM (inconclusive).

And the AC50 [12]?
The AC50 was 40.3 µM (active).

What about the IC50 [13] of the same compound?
The IC50 was 6.19 µM (active).

And the EC50 [14]?
The EC50 was 2.52 µM (active).

What about the EC50 [15] of the same compound?
The EC50 was 11.1 µM (active).

What about the EC50 [16] of the same compound?
The EC50 was 10.2 µM (active).

And the EC50 [17]?
The EC50 was 3.15 µM (active).

And the EC50 [18]?
Its EC50 is > 120 µM (not active).

And the IC50 [19]?
Its IC50 is 0.438 µM (active).

What about the EC50 [20] of the same compound?
The EC50 was > 120 µM (not active).

For `O=C(Nc1ccc(Oc2c(F)c(F)c(F)c(F)c2F)cc1)OC1CCN2Cc3ccccc3N=C12` (centres undefined), which IC50 [21] is on record?
The IC50 was 8.78 µM (active).

What about the “Absolute IC50 (XBP1)” value [22] of the same compound?
Its value is 10 µM.

And the EC50 [16]?
The EC50 was 8.72 µM (active).

What about the EC50 [20] of the same compound?
Its EC50 is 12 µM (active).

What about the AC50 [23] of the same compound?
Its AC50 is 0.888 µM (active).

And the EC50 [24]?
Its EC50 is 19 µM (active).

And the IC50 [25]?
Its IC50 is 9.84 µM (active).

Which IC50 [26] does the source give for `O=C(CSc1ccc(-c2ccco2)nn1)Nc1ccccc1` here?
Its IC50 is 84.4 µM (active).

And the IC50 [27]?
Its IC50 is > 100 µM (inactive).
